{"source": "paper PMC11607671", "about": "“Antiviral activity of cathelicidins against porcine epidemic diarrhea virus (PEDV): Mechanisms, and efficacy” (Virus Research, 2024)", "key": {"PEDV [1]": {"test_system": "PEDV", "assay": "Transmission electron microscopy of peptide-treated virus", "set-up": "species or system Porcine epidemic diarrhea virus", "details": "PEDV treated with 10 µM peptide, negative stain, Fig. 9; for effect on virus morphology / membrane (TEM): one minute at 37 °C", "procedure": "PEDV was treated with CATH-B1, LL-37, PMAP-23, and PMAP-36 for one minute at 37 °C. Subsequently, 10 µL of the sample was placed onto a freshly carbon-coated copper grid. The grids were washed 3 times with PBS and then fixed with 1% glutaraldehyde (Sigma-Aldrich, St. Louis, MO, USA) in PBS for 10 min. Following this fixation, the grids were rinsed 2 times with PBS and 4 times with MilliQ water. They were stained for 5 min in Uranyl Acetate (pH 7) then briefly washed with methylcellulose/uranyl acetate (pH 4) and incubated for 5 min on ice. Finally, the grids were looped out of the solution and air-dried. The samples were subsequently examined in a JEM1010 (JEOL) equipped with a Veleta 2k × 2k CCD camera (EMSIS, Munster, Germany).\nFig. 9 The effect of AMPs on the morphology of the virus. PEDV (MOI=0.3), which was pre-incubated with peptides. TEM images were taken of PEDV alone (A–D), PEDV treated with 10 µM LL-37 (E-H), PEDV treated with 10 µM CATH-B1 (I-L), PEDV treated with 10 µM PMAP-23 (M, N), and PEDV treated with 10 µM PMAP-36 (O, P). […] Micrographs were captured with a pixel size of 0,5 nm and analyzed visually using ImageJ. The micrographs are representative of observations from three independent experiments. Scale bars represent 100 nm."}, "PEDV-GFP [2]": {"test_system": "PEDV-GFP", "assay": "Co-incubation antiviral assay of the extended AMP panel and of FL LL-37", "assay_type": "cell-based, Porcine epidemic diarrhea virus", "details": "FC; for prevention of PEDV-GFP entry into Vero cells, extended AMP panel, in words: co-incubation with PEDV-GFP, 1 and 5 µM, 3 h, two independent experiments in duplicate, Fig. 5", "procedure": "(§1) In order to determine the effect of AMPs on the infectivity of PEDV, Vero cells (5 × 10^5 per well) were seeded in 12-well plates and cultured overnight at 37 °C, 5% CO2. In a co-incubation of virus and AMPs experiments (Fig. 2A), the mixture of AMPs (0–10 µM) and PEDV-GFP (MOI= 0.3) in a 1 mL volume of DMEM (P/S + 10% FCS) was added to the cells and incubated at 37 °C. After 2 h, the supernatant was replaced with fresh DMEM (P/S + 10% FCS) and incubated for 24 h. Subsequently, the cells were washed 2 times with flow cytometry buffer (500 mL PBS+ 10 mL FCS+ 250 µL of 10% NaN3) and were imaged with an EVOS M5000 Imaging System for semi-quantitative determination of infectivity. Eventually, cells were carefully detached by 2.5% trypsin, stained with ViaKrome 808 fixable viability dye (1:1000), and incubated for 30 min at 4 °C. Following washing, the cells were fixed using 50 µL of 4% PFA for 10 min, and a minimum of 1 × 10^5 cells were acquired using the CytoFLEX LX Flow Cytometer (FC)(Beckman Coulter, USA). Data was analyzed using FlowJo software v.10.6 (Flowjo LCC, Ashland, OR, USA).\nThis extended panel of AMPs encompassed chicken-derived peptides (D-CATH-2, l-CATH-2), mouse-derived peptide (CRAMP), horse-derived peptides (eCATH-1, eCATH-3), parrot-derived peptides (ER2, ER3, AG3), and synthetic peptides (CR165, CR174), all of which were readily accessible within our laboratory. As previously described, these AMPs were co-incubated with PEDV.\nFig. 5 Antiviral effects of a diverse group of AMPs on PEDV infection. Vero cells were incubated for 3 h with a combination of PEDV-GFP and AMPs, as described previously. FC was utilized to assess the inhibitory impact of AMPs.\nFigure S4. The antiviral activity of FL LL-37 (fluorogenic LL-37 ) and unlabeled LL-37. Peptides were co-incubated at 1 and 5 µM with PEDV and added to Vero cells for 3 h, followed by FC analysis to examine the infectivity."}, "PEDV-GFP [3]": {"test_system": "PEDV-GFP", "assay": "Co-incubation antiviral assay, PEDV-GFP MOI=0.3, Vero cells (fluorescence microscopy and flow cytometry)", "assay_type": "cell-based, Porcine epidemic diarrhea virus", "procedure": "as §1\nFig. 2 Effect of AMPs on the infectivity of PEDV (MOI=0.3). A) Experimental set-up of the ‘co-incubation assay’; Vero cells were subjected to 2 h exposure to a combination of AMPs and PEDV-GFP. Afterward, the supernatant was replaced, and the cells were incubated for an additional 24 h B) Fluorescent microscopy (20 × magnification) was performed to visualize the fluorescence signal of GFP in the presence of 1, 5, and 10 µM AMPs. The cell-only sample consists exclusively of cells while the no-peptide sample contains only PEDV-GFP, with no peptides present.\nFig. 3 Antiviral activity of AMPs as determined by flow cytometry (FC). A) The percentage of GFP-positive cells following a 2 h incubation with a combination of PEDV and AMPs. […] The values reported here depict the average ± SD derived from three independent experiments performed in duplicate. * p < 0.05; ** p < 0.01."}, "PEDV [4]": {"test_system": "PEDV", "assay": "Co-incubation antiviral assay, PEDV MOI=1, Vero cells", "assay_type": "cell-based, Porcine epidemic diarrhea virus", "details": "PEDV MOI=1, co-incubation, Vero cells, FC; Fig. 4B", "procedure": "as §1\nFig. 4 The inhibitory effect of AMPs on PEDV at MOI=1. A) Fluorescence microscopy image was captured at 20 × magnification to visualize the GFP fluorescence signal in Vero cells following co-incubation of AMPs and PEDV at MOI=1. B) The percentage of GFP-positive cells was determined by FC after 3 h co-incubation of PEDV and AMPs. C) The fluorescence intensity of GFP across three different concentrations of LL-37 was illustrated through the FC histogram. […] The reported values in 4A represent the mean ± SD of three independent experiments performed in duplicate **** p < 0.0001."}, "PEDV-GFP [5]": {"test_system": "PEDV-GFP", "assay": "Pre-incubation (pre-treatment) antiviral assay", "assay_type": "cell-based, Porcine epidemic diarrhea virus", "details": "Vero cells treated 3 h with AMPs (0-10 µM), washed, then infected with PEDV-GFP MOI 0.3 for 2 h; FC; Fig. 6B, C", "procedure": "The effect of AMPs on viral infectivity was also determined when they were added to Vero-cells before (pre-treatment) or after (post-treatment) infection. In the pre-treatment assay (Fig. 6A), Vero cells were treated with different concentrations of CATH-B1 and LL-37 peptides (ranging from 0 to 10 µM) for various durations (1, 2, 3, 4, and 24 h) at 37 °C. Subsequently, the cells were washed 2 times with PBS and infected with PEDV-GFP at an MOI of 0.3 for 2 h\nIn post-incubation assays (Fig. 7A), cells were initially exposed to the virus for 2 h, washed 2times with PBS and subsequently treated with AMPs for 3 h Both for pre- and post-infection assays, after the respective incubation periods, the cells were assessed using fluorescence microscopy and quantified using FC as described above.\nFig. 6 Effects of AMPs in pre-incubation assay. A) Experimental set-up of pre-incubation experiment. B) FC was employed to quantify the percentage of GFP-positive cells during pre-incubation. […] The reported values represent the mean ± SD derived from three independent experiments performed in triplicate. * p < 0.05; ** p < 0.01."}, "PEDV [6]": {"test_system": "PEDV", "assay": "Peptide-virus interaction assay with Capto Core 700 beads", "assay_type": "cell-based, Porcine epidemic diarrhea virus", "details": "Fig. 8", "procedure": "In order to determine if CATH-B1 and LL-37 physically interact with PEDV, Capto Core 700 beads (GE Healthcare Life Sciences, Chicago, IL, USA) were used to selectively eliminate unbound AMPs. PEDV were pre-incubated with or without CATH-B1/LL-37 in Opti-MEM medium, and Capto Core 700 beads were added, followed by a 1 h incubation at 4 °C while slowly rotating. After centrifugation, supernatants were collected and applied to the cells. To make sure the AMP was removed effectively, we tested samples with peptides but no virus using the same process. The collected supernatants were used to inoculate cells, and the number of infected cells was determined using the described method.\nFig. 8 Interactions between CATH-B1 and LL-37 with PEDV. CATH-B1/LL-37 were pre-incubated with the virus, and subsequently, the peptide and virus were separated using Capto Core beads. The supernatant containing the separated virus was then employed to infect Vero cells. […] The data is presented as the mean ± SEM of three independent experiments in duplicate, each with triplicate samples. **** p < 0.0001."}}, "data": [{"substance": "GRFRRLRKKTRKRLKKIGKVLKWIPPIVGSIPLGCG [PMAP-36, porcine cathelicidin, 36 residues]", "values": [{"measurement": "effect on virus morphology / membrane (TEM)", "setting": "PEDV [1]", "result": "structure remained unchanged"}]}, {"substance": "ISRLAGLLRKGGEKIGEKLKKIGQKIKNFFQKLVPQPE [CRAMP, mouse-derived peptide, 38 residues]", "values": [{"measurement": "prevention of PEDV-GFP entry into Vero cells, extended AMP panel, in words", "setting": "PEDV-GFP [2]", "result": "failed to neutralize PEDV"}]}, {"substance": "PIRNWWIRIWEWLNGIRKRLRQRSPFYVRG HLNVTSTPQP (PIRNWWIRIWEWLNGIRKRLRQRSPFYVRGHLNVTSTPQP) [CATH-B1, chicken cathelicidin, 40 residues]", "values": [{"measurement": "percentage of GFP-positive cells (FC), co-incubation", "setting": "PEDV-GFP [3]; 10 µM peptide, PEDV-GFP MOI=0.3, 2 h co-incubation then 24 h, no-peptide control approximately 35%, three independent experiments in duplicate, Fig. 3A", "result": "1–2%"}, {"measurement": "infected cells by fluorescent microscopy, co-incubation", "setting": "PEDV-GFP [3]; PEDV-GFP MOI=0.3, 5 and 10 µM peptide, 2 h co-incubation then 24 h, compared to control without peptide, Fig. 2B", "result": "reduced numbers of infected cells"}, {"measurement": "antiviral effect at MOI=1, in words", "setting": "PEDV [4]", "result": "diminished as the MOI increased"}, {"measurement": "antiviral activity in pre-incubation assay, in words", "setting": "PEDV-GFP [5]", "result": "strong activity only at 10 μM"}, {"measurement": "virus infectivity, peptide pre-incubated with beads before PEDV introduction", "setting": "PEDV [6]; Capto Core 700 beads, Vero cells", "result": "minimal effects on virus infectivity"}, {"measurement": "virus infectivity, peptide incubated with PEDV without beads", "setting": "PEDV [6]; no Capto Core 700 beads, Vero cells", "result": "a decrease in virus infectivity"}, {"measurement": "antiviral activity when peptide is combined with virus and beads", "setting": "PEDV [6]; peptide + PEDV, then Capto Core 700 beads 1 h at 4 °C, supernatant applied to Vero cells", "result": "remained unchanged"}, {"measurement": "virus aggregation (TEM)", "setting": "PEDV [1]", "result": "extensive virus aggregation"}, {"measurement": "effect on virus morphology / membrane (TEM)", "setting": "PEDV [1]", "result": "significant membrane damage"}]}, {"substance": "RIIDLLWRVRRPQKPKFVTVWVR [PMAP-23, porcine cathelicidin, 23 residues]", "values": [{"measurement": "effect on virus morphology / membrane (TEM)", "setting": "PEDV [1]", "result": "structure remained unchanged"}]}, {"substance": "RRWVQRWIRRWRKVAAARRWVQRWIRRWRPKV [CR-174, non-naturally occurring synthetic (designed) AMP]", "values": [{"measurement": "prevention of PEDV-GFP entry into Vero cells, extended AMP panel, in words", "setting": "PEDV-GFP [2]", "result": "unsuccessful in significantly preventing PEDV-GFP entry"}]}, {"substance": "RRWVQRWIRWVQRWVR [CR-165, non-naturally occurring synthetic (designed) AMP]", "values": [{"measurement": "prevention of PEDV-GFP entry into Vero cells, extended AMP panel, in words", "setting": "PEDV-GFP [2]", "result": "unsuccessful in significantly preventing PEDV-GFP entry"}]}, {"substance": "Tamra-(ahx)-LLGDFFRKSKEKIGKEFKRIVQRIKDFLRNLVPRTES [FL LL-37]", "values": [{"measurement": "effect of fluorogenic labelling on antiviral activity", "setting": "PEDV-GFP [2]; 1 and 5 µM co-incubated with PEDV, Vero cells 3 h, compared with unlabeled LL-37, Fig. S4", "result": "no effect on the antiviral activity"}, {"measurement": "cellular localization (confocal microscopy)", "setting": "Vero cells; 1 and 5 µM, 1 and 3 h incubation, Vero cells, fixed, DAPI, Fig. 10B", "result": "predominant intracellular localization"}, {"measurement": "uptake or attachment to Vero cells (FC)", "setting": "Vero cells; 3 h incubation with Vero cells, washing, FC fluorescence, two concentrations, unlabeled LL-37 as negative control, Fig. 10A", "result": "substantial concentration-dependent uptake or attachment"}, {"measurement": "uptake at 4 °C (FC)", "setting": "Vero cells; Vero cells at 4 °C versus 37 °C, 1 and 5 µM, 30, 60, 180 min, Fig. S5", "result": "significant reduction in the uptake"}]}]}
